From patent US20160199369A1, “Extruded Immediate Release Abuse Deterrent Pill” (priority 2013, published 2016)

Columns and labels:
[1] = relative solubility, yes/no; cited from earlier work
[2] = General solubility of exemplary components; format: physicochemical; settings: 200 proof ethanol, filtered through 0.22 micrometer PTFE filter
Text: The following table lists the relative solubility of exemplary components of a formulation. A number of different dyes are listed along with their solubility information taken from the various literature sources and tested experimentally (200 proof ethanol and filtered through a 0.22 micrometer PTFE filter).

| Compound | Alcohol Solubility (Literature) [1] | Water Solubility [1] | Alcohol Solubility (tested) [2] |
| --- | --- | --- | --- |
| COc1ccc2c3c1O[C@H]1C(=O)CC[C@@]4(O)[C@@H](C2)N(C)CC[C@]314.Cl [Oxycodone HCl, reference compound] | Yes | Yes |  |
| COc1cc(S(=O)(=O)[O-])c(C)cc1N=Nc1c(O)ccc2cc(S(=O)(=O)[O-])ccc12.[Na+].[Na+] [FD&C Red #40] | Yes | Yes | Yes |
| O=C1/C(=C2\Nc3ccc(S(=O)(=O)[O-])cc3C2=O)Nc2ccc(S(=O)(=O)[O-])cc21.[Na+].[Na+] [FD&C Blue #2] | Yes | Yes | Yes |
| O=C([O-])C1=NN(c2ccc(S(=O)(=O)[O-])cc2)C(=O)C1N=Nc1ccc(S(=O)(=O)[O-])cc1.[Na+].[Na+].[Na+] (stereo not shown) [FD&C Yellow #5] | Yes | Yes | Yes |
| CCN(Cc1cccc(S(=O)(=O)[O-])c1)c1ccc(C(=C2C=CC(=[N+](CC)Cc3cccc(S(=O)(=O)[O-])c3)C=C2)c2ccccc2S(=O)(=O)[O-])cc1.[Na+].[Na+] [FD&C Blue #1] | Yes | Yes |  |
